# Measurements taken from patent publication EP3076168A1, “An electrochemical sensor” (Unisense Environment A/S, priority 2015, dated 2016).
# Tests used:
# [1] = Profiling: penetration of oxygen through candidate solution, measured with an OX10 oxygen microsensor; details: 0.1 M solution in propylene carbonate
# Protocol: The penetration of oxygen through the solution of the candidates was determined using an OX10 oxygen microsensor from Unisense A/S in conjunction with a microprofiling laboratory stand.
# A small capillary, cautiously filled with candidate solution in order to avoid bulk oxidation, was placed underneath the tip of the oxygen microsensor. The microprofiling stand was remotely controlled by the bundled software in order to move the microelectrode tip with five to ten micrometers between each concentration measurement. The microelectrode was calibrated prior to each candidate measurement using air-bubbled demineralised water and oxygen-free alkaline ascorbic acid solution.
# The microsensor was used to profile oxygen-free alkaline ascorbic acid solution prior to and after measurement of each candidate to 1) ensure that physical damage during candidate measurement could be detected and to 2) provide baseline signal for normalisation of candidate profiles.
# Each candidate profile was subtracted the baseline signal and normalised with respect to surface oxygen concentration in order to assess the candidate oxygen removal efficiency. A normalised signal of unity equals surface oxygen concentration and a normalised signal of 0.01 equals a dissolved oxygen concentration of 1 % of surface concentration.
# [2] = Solubility test of oxygen scavenger candidates (solvent added for a final 1 M, visual inspection of remaining solid); format: physicochemical; details: stated as substantially lower than 1 M
# Protocol: In other cases, solubility tests with acetonitrile instead of propylene carbonate was performed.
# In the case that solids remained after addition of solvent and vigorous stirring, the solubility of a candidate is assessed by visual inspection of the amount of remaining compound versus the amount of compound prior to solvent addition. In the case of a commercially available candidate dissolved in tetrahydrofuran (THF), the THF is removed under reduced pressure prior to addition of solvent.
SMILES,Oxygen profile depth [1],Concentration in propylene carbonate (PC) [2]
"c1ccc(Pc2ccccc2)cc1 [Candidate 1, Diphenylphosphine]",ca. 75 µm,–
"CC(C)(C)P(CCCC[N+]1(C)CCOCC1)C(C)(C)C.[Br-] [Candidate 10, N-[4-(di-tert-butylphosphino)butyl]-N-methylmorpholinium bromide]",–,lower than 1 M
